# Columns and labels:
# [1] = molecular target: T1, cyclooxygenase-1 (Mus musculus, UniProt P22437); test: Cyclooxygenase-1 inhibition in mouse peritoneal macrophages (PGE2 ELISA); assay type: cell-based
# T1 construct: endogenous in cells; host or cells: primary mouse peritoneal macrophages (unstimulated)
# T1 sequence (P22437 27-602): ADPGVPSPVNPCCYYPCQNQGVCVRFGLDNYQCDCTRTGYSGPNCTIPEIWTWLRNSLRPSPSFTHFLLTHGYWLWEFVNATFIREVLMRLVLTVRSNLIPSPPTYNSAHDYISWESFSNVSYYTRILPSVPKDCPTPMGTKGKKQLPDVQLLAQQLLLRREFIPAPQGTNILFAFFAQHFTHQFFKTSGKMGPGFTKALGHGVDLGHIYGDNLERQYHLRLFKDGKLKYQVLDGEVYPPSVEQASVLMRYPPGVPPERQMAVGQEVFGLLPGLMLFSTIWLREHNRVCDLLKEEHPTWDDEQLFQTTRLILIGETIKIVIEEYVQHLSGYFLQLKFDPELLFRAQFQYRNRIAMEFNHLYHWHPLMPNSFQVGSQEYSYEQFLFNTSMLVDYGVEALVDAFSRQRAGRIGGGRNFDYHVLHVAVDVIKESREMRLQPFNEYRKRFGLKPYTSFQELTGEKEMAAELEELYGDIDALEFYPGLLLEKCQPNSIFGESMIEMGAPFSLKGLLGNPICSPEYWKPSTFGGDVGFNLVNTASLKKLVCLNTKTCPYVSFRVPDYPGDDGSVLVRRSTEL
# Procedure: First of all, the cyclooxygenase-1 was examined through the following procedure.
# (§1) Peritoneal fluid in which macrophages were suspended was extracted from a mouse peritoneal cavity and centrifuged at 4° C., 1,000 rpm for 2 minutes. Then, the supernatant was removed, suspended using 20 ml of incomplete RPMI medium [including PC/SM (penicilin/streptomycin)] and again centrifuged under the same condition. […] Then, the cell number was calculated with the hemocytometer and adjusted to reach 1×10^6 cells/ml of cell concentration in the final cell suspension. The resulting suspension was poured into each well of 96-well plate and left with the incubator at 37° C. in 5% CO2 for about 2 hours in order to attach macrophages. […] The resulting cell was cultivated with the incubator at 37° C. in 5% CO2 for about 12˜16 hours. Then, arachidonic acid was added, adjusting to 10 μM of a final concentration and incubated at 37° C. for more 10 minutes and the supernatant of the reacted solution (˜180 μl) was recovered to finish the reaction.
# [2] = molecular target: T2, cyclooxygenase-2 (Mus musculus, UniProt Q05769); test: Cyclooxygenase-2 inhibition in aspirin-treated, LPS-induced mouse peritoneal macrophages (PGE2 ELISA); assay type: cell-based
# T2 construct: blended with 3% FBS-RPMI 1640 medium containing 10 μg/ml of LPS in each well; endogenous in cells; host or cells: primary mouse peritoneal macrophages, pretreated with 500 μM aspirin and induced with LPS
# T2 sequence (Q05769 18-604): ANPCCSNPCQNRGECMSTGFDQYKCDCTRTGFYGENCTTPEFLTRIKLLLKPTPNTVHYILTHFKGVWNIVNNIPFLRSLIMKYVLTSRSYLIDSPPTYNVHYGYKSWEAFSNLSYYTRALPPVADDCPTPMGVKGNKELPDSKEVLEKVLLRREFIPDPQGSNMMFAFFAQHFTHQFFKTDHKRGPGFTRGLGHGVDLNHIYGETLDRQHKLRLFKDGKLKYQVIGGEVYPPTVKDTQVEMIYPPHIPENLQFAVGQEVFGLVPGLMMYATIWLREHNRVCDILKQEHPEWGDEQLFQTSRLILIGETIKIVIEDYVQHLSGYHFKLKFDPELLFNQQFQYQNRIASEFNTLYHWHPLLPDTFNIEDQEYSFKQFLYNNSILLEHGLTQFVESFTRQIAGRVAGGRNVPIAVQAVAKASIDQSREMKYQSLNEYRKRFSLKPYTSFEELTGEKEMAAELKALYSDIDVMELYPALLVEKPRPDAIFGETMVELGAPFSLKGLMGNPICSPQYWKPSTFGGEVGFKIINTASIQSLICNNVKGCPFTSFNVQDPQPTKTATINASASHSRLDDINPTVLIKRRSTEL
# Procedure: Second, the cyclooxygenase-2 was examined through the following procedure.
# as §1, with “RPMI medium [PC/SM (penicilin/streptomycin)] and” for “RPMI medium [including PC/SM (penicilin/streptomycin)] and”, “suspension was treated with aspirin, adjusting 500 μM of final concentration and poured into” for “suspension was poured into”, “96-well plate in 100 μl respectively. Again, it was left with” for “96-well plate and left with”
SMILES,Inhibitory effects of cyclooxygenase (COX): COX-1 ([1]; 3 μM) [% inhibition],Inhibitory effects of cyclooxygenase (COX): COX-1 ([1]; 10 μM) [% inhibition],Inhibitory effects of cyclooxygenase (COX): COX-1 ([1]; 30 μM) [% inhibition],Inhibitory effects of cyclooxygenase (COX): COX-2 ([2]; 30 nM),Inhibitory effects of cyclooxygenase (COX): COX-2 ([2]; 100 nM),Inhibitory effects of cyclooxygenase (COX): COX-2 ([2]; 300 nM)
"CCCCOc1cc(-c2ccc(S(C)(=O)=O)cc2)ccc1OC(C)C [Example 9, 3-butoxy-4-isopropoxy-4′-methanesulfonyl-biphenyl]",49.8,66.4,70.8,44.2 % inhibition,59.8 % inhibition,70.4 % inhibition
"CS(=O)(=O)c1ccc(-c2ccc(OC3CCCC3)c(OC3CCCC3)c2)cc1 [Example 8, 4′-methanesulfonyl-3,4-dicyclopentyloxy-biphenyl]",29.7,40.2,49.7,27.4 % inhibition,42.7 % inhibition,54.7 % inhibition
"CCCCOc1ccc(-c2ccc(S(C)(=O)=O)cc2)cc1OCCCC [Example 6, 4′-methanesulfonyl-3,4-dibutyloxy-biphenyl]",14.7,20.9,22.7,˜0 % inhibition,˜0 % inhibition,˜0 % inhibition
"CS(=O)(=O)c1ccc(-c2ccc(OC3CC3)c(OC3CC3)c2)cc1 [Example 5, 4′-methanesulfonyl-3,4-dicyclopropyloxy-biphenyl]",50.3,58.4,60.4,30.2 % inhibition,33.3 % inhibition,46.5 % inhibition
"CS(=O)(=O)c1ccc(-c2ccc(OCc3ccccc3)c(OCc3ccccc3)c2)cc1 [Example 7, 4′-methanesulfonyl-3,4-dibenzyloxy-biphenyl]",36.8,40.5,41.1,47.6 % inhibition,60.3 % inhibition,68.4 % inhibition

# Next, values leading:
Inhibitory effects of cyclooxygenase (COX): COX-1 ([1]; 3 μM) [% inhibition],Inhibitory effects of cyclooxygenase (COX): COX-1 ([1]; 10 μM) [% inhibition],Inhibitory effects of cyclooxygenase (COX): COX-1 ([1]; 30 μM) [% inhibition],Inhibitory effects of cyclooxygenase (COX): COX-2 ([2]; 30 nM),Inhibitory effects of cyclooxygenase (COX): COX-2 ([2]; 100 nM),Inhibitory effects of cyclooxygenase (COX): COX-2 ([2]; 300 nM),SMILES
61.5,70.5,77.1,55.2 % inhibition,60.5 % inhibition,76.5 % inhibition,"CCOc1ccc(-c2ccc(S(C)(=O)=O)cc2)cc1OCC [Example 2, 4′-methanesulfonyl-3,4-diethoxy-biphenyl]"
58.2,70.4,78.4,˜0 % inhibition,˜0 % inhibition,˜0 % inhibition,"CC(C)Oc1ccc(-c2ccc(S(C)(=O)=O)cc2)cc1OC(C)C [Example 4, 4′-methanesulfonyl-3,4-diisopropyloxy-biphenyl]"
9.4,10.1,23.4,5.0 % inhibition,5.5 % inhibition,10.1 % inhibition,"CCCOc1ccc(-c2ccc(S(C)(=O)=O)cc2)cc1OCCC [Example 3, 4′-methanesulfonyl-3,4-dipropyloxy-biphenyl]"
44.4,50.5,64.7,46.2 % inhibition,50.7 % inhibition,59.7 % inhibition,"COc1ccc(-c2ccc(S(C)(=O)=O)cc2)cc1OC [Example 1, 4′-methanesulfonyl-3,4-dimethoxy-biphenyl]"

# — patent US20030105095A1 (CHEIL JEDANG Corporation, priority 2001, published 2003)
